Data taken from patent US20090215804A1, “FUMARATE OF 4- [[4- [[4- (2-CYANOETHENYL) -2,6-DIMETHYLPHENYL)AMINO] -2-PYRIMIDINYL]AMINO]BENZONITRILE” (priority 2004, published 2009).
Converted amounts (≈) assume the structure as drawn. Like-named read-outs stand apart in the source and are kept apart here. One block for each compound: values may come before it.

Legend:
[1] = system: HIV; details: wild type of HIV as well as drug and multi drug resistant strains of HIV; cited from earlier work
[2] = Solubility data; format: physicochemical
From the text: Table 1 lists solubility data of free base (E) 4-[[4-[[4-(2-cyanoethenyl)-2,6-dimethylphenyl]amino]-2-pyrimidinyl]amino]benzonitrile and of the compound of formula (I-a).

[3] = BCS classification; format: physicochemical
From the text: A scientific framework for classifying drug substances based on their aqueous solubility and intestinal permeability is the Biopharmaceutics Classification System or BCS. […] Free base and fumarate salt may be classified as BCS class 2 compounds.

[4] = Chemical stability: storage at different humidity and temperature, HPLC for percentage of impurities; format: physicochemical
Protocol: Compound (I-a) was stored under different conditions of humidity and temperature. After storage, the salt was analyzed by High Performance Liquid Chromatography (HPLC) for percentage of impurities.

[5] = Hygroscopicity; format: physicochemical
[6] = Physical stability of the crystal structure after storage, infrared spectroscopy; format: physicochemical; details: six weeks storage, conditions of Table 2, infrared spectroscopy
Protocol: The stability of the crystal structure of the compound of formula (I-a) was studied after storage for a period of six weeks under different conditions of humidity and temperature. The same conditions as described in Table 2 were applied. After storage the compound was analyzed with infrared spectroscopy.

Compound: Cc1cc(C=CC#N)cc(C)c1Nc1ccnc(Nc2ccc(C#N)cc2)n1 [4-[[4-[[4-(2-cyanoethenyl)-2,6-dimethylphenyl]amino]-2-pyrimidinyl]amino]-benzonitrile]
HIV replication inhibiting activity [1]: excellent

solubility ([2]; 0.01 N HCl, simulated gastric fluid, solubility in 0.01 N HCl, read-out: Concentration in mg/ml, 0.01 N HCl): 0.019 mg/mL (≈ 51.9 µM) | Concentration in mg/ml, PEG 400 ([2]; solubility in PEG 400): 40 mg/mL | Concentration in mg/ml, Water ([2]; solubility in water): 0.00002 mg/mL | solubility in water and in HCl (in words) ([2]; water): poor solubility | BCS class [3]: BCS class 2
Compound: Cc1cc(/C=C/C#N)cc(C)c1Nc1ccnc(Nc2ccc(C#N)cc2)n1 [Free base (E-isomer), (E) 4-[[4-[[4-(2-cyanoethenyl)-2,6-dimethylphenyl]amino]-2-pyrimidinyl]amino]benzonitrile]

Concentration in mg/ml, 0.01 N HCl ([2]; solubility in 0.01 N HCl): 0.013 mg/mL | solubility ([2]; water, solubility in water, read-out: Concentration in mg/ml, Water): 0.0009 mg/mL | solubility in water and in HCl (in words) ([2]; water): poor solubility | BCS class [3]: BCS class 2 | Sum of impurities % ([4]; 40° C./75% RH, 4 weeks): 0.62 %, w/w | Sum of impurities % ([4]; 40° C./75% RH, 8 weeks): 0.61 %, w/w | Sum of impurities % ([4]; 50° C./air, 4 weeks): 0.62 %, w/w | Sum of impurities % ([4]; 50° C./air, 8 weeks): 0.61 %, w/w | Sum of impurities % ([4]; RT/56% RH, 4 weeks): 0.58 %, w/w | Sum of impurities % ([4]; RT/56% RH, 8 weeks): 0.64 %, w/w | Sum of impurities % ([4]; RT/75% RH, 4 weeks): 0.59 %, w/w | Sum of impurities % ([4]; RT/75% RH, 8 weeks): 0.65 %, w/w | Sum of impurities % ([4]; RT/<5% RH, 4 weeks): 0.61 %, w/w | Sum of impurities % ([4]; RT/<5% RH, 8 weeks): 0.62 %, w/w | Sum of impurities % ([4]; Reference, 1 week): 0.58 %, w/w | chemical stability (in words) ([4]; storage conditions of Table 2): chemically stable | hygroscopicity [5]: not hygroscopic
Compound: Cc1cc(/C=C/C#N)cc(C)c1Nc1ccnc(Nc2ccc(C#N)cc2)n1 [Compound of formula (I-a)]
stability of the crystal structure [6]: No changes in crystal structure were observed
